Several values for one entry are separate records, joined by “and”; a condition that tells them apart may be missing. Equal values may be shown once. Where a name gives a salt, the structure may show the parent alone.
How the values were obtained:
[1] = system: ryr1b homozygous mutant zebrafish; format: in vivo, zebrafish (Danio rerio); conditions: for touch-evoked escape behaviors / mobility of ryr1b mutants: treated from 1 dpf, scored and genotyped at 5 dpf
Method: In two independent experiments, two pools of 20 larvae from heterozygous ryr1b matings were treated with DMSO or with one of three different concentrations of NIF (1.0-100.0 μg/mL) at 1 dpf and evaluated in terms of touch-evoked escape behaviors at 5 dpf (n=40). Following phenotypic scoring, all living embryos were genotyped using three-primer genomic PCR. Swimming scores for larvae genotype-confirmed as ryr1b homozygous mutants are shown as a percentage of the total number of living larvae in each dose category: 1=poor swimming; 2 or 3=moderate or wild-type swimming. NIF improved mobility of ryr1b mutants at a dose of 10 μg/mL. […] Phospho-Stat3 band intensities were normalized to β-Actin control bands and quantified in Image J (NIH).
FIGS. 12A-12C show a ketoprofen dose-response and proposed mechanistic link. […] FIG. 12B is a dose-response graph for ketoprofen (KETO). Two pools of 20 larvae from heterozygous ryr1b matings were treated with DMSO or four different concentrations of KETO (1.0-100.0 μg/mL) at 1 dpf and evaluated in terms of touch-evoked escape behaviors at 5 dpf (n=40). Following phenotypic scoring, all living embryos were genotyped using three-primer genomic PCR. Swimming scores for larvae genotype-confirmed as ryr1b homozygous mutants are shown as a percentage of the total number of living larvae in each dose category: 1=poor swimming, 2 or 3=moderate or wild-type swimming. […] Phosphorylated STATs form dimers, translocate to nuclei, and from there are associated with various transcriptional activities. Dubowitz, V. and Sewry, C. (2006) Muscle Biopsy: A Practical Approach. Elsevier-Health Sciences Division.
The relatively relaxed zebrafish was initially identified due to a spontaneous autosomal recessive mutation within the ryr1b gene^30. Specifically, ryr1b mutants carry a 4046 base pair (bp) DNA insertion in the intron between exons 48 and 49 that includes an additional 32 bp sequence found in mutant cDNA (FIG. 3)^30. Genotypes of individual embryos were examined using three-primer genomic PCR, with an expected wild-type band of 1,668 bp and a mutant band of 653 bp. Primer sequences were as follows: ryr1b #1 (forward): 5′-[…]-3′ (SEQ ID NO: 4); ryr1b #2 (reverse): 5′-[…]-3′ (SEQ ID NO: 5); and ryr1b #3 (reverse): 5′-[…]-3′ (SEQ ID NO: 6).
The primary and secondary screens only tested chemical pools and individual compounds at a single concentration (2.0 μg/mL). Although beneficial in a high-throughput context, this approach can result in false positives and false negatives. […] For analysis, pools of 20 larvae obtained from heterozygous ryr1b matings were treated in duplicate with DMSO or with one of three different concentrations of NIF (1.0-100.0 μg/mL) at 1 dpf and scored for touch-evoked escape behaviors at 5 dpf. All scored larvae were then genotyped using three-primer genomic PCR. […] Next, hit expansion was used to verify JAK-STAT as a potential molecular pathway involved in ryr1b mutant pathology. […] A higher effective dose for 5,15-DPP was consistent with the IC50 measurements reported for each compound^40,41.

[2] = system: satellite cell expansion and muscle generation; conditions: in vitro and in mice, aging and dystrophic mouse models; cited from earlier work
[3] = system: ryr1b homozygous mutant zebrafish; test: Secondary screen of individual chemicals in ryr1b zebrafish (vitality: survival and touch-evoked escape behavior); format: in vivo, zebrafish (Danio rerio); design: key: vitality score, theoretical range 0–60; DMSO controls expected ~50; conditions: 2.0 μg/mL from 1 dpf, scored at 5 dpf; average of two replicates of 20 larvae from heterozygous ryr1b matings; score=(#Dead*0)+(#ryr1b*1)+(#Moderate*2)+(#Wild-type*3), max 60, expected 50 in DMSO controls
Method: Each scored compound represents an average of two replicates, consisting of 20 larvae from heterozygous ryr1b matings (n=40). Larvae obtained from wild-type AB matings served as positive controls. […] Significance was determined by pairwise comparisons between control and experimental pools using a Student's t-test. Vitality score=(#Dead*0)+(#ryr1b*1)+(#Moderate*2)+(#Wild-type*3). Standard deviations shown for positive and negative controls were calculated based on results from 5 and 21 independent experiments, respectively.
Primary screen. For the primary screen, twenty embryos (1 dpf) resulting from a mating of heterozygous ryr1b zebrafish were manually sorted into 48-well plates containing 250 μL embryo 1×E3 medium (5.0 mM NaCl, 0.17 mM KCl, 0.33 mM CaCl2*2H2O, 0.33 mM MgSO4*7H2O) and four pooled chemicals from the Prestwick2 chemical library. Each chemical pool was assayed in duplicate using embryos from two independent clutches, for a total of 24 distinct pools tested per plate (FIG. 1). The chemicals were dissolved to a final concentration of 2.0 μg/mL and 0.4% DMSO, which is similar to concentrations other groups have used in zebrafish studies^37,38. As a negative control, twenty embryos from each clutch were cultured without chemicals in vehicle only (0.4% DMSO) (FIG. 1). Larvae obtained from wild-type (Oregon AB) matings served as positive controls in separate plates. All plates containing embryos were incubated at 28.5° C. and maintained as initially treated for 5 days. Dead embryos were removed from wells when observed during the first 4 days of the study. On day 5, dead or “motion-dead” larvae were scored alongside living larvae.
At 5 dpf, pools were scored for their ability to improve the survival and touch-evoked escape behaviors of ryr1b homozygous mutants using the following numeric scoring system: 3=4-6 cm, fast (wild-type); 2=2-4 cm (moderate); 1=<2 cm, slow (ryr1b); 0=no movement (dead) (FIG. 2A). Survival, swimming, and combined endpoints of the primary screen were then examined for their ability to distinguish positive from negative controls. […] Taking into account both experimental replicates (n=40), hit pools contained at least 37 alive larvae on day 5 (i.e., 70-100% of the larvae assumed to be ryr1b mutants survived the duration of the study), and were selected for analysis in a secondary screen.
In the secondary screen, hit pools were separated and tested as 68 individual chemicals. Screening was performed precisely as described for the primary screen with few modifications. Embryos were raised in wells containing 750 μL 1×E3 medium, as opposed to 250 μL, although the final concentration of each compound was maintained at 2.0 μg/mL. […] Vitality scores, weighting survival and swimming ratios appropriately, were calculated as (#Dead*0)+(#ryr1b*1)+(#Moderate*2)+(#Wild-type*3). Theoretical maximum and minimum scores were 60 and 0, respectively, with an expected score of 50 in DMSO-treated controls. Secondary screen hits (P<0.05), considered “candidate” compounds, are currently being examined in dose-response and long-term studies.
The second tier of the chemical screen was performed two years following the primary screen, with a fully established ryr1b^+/− line. Healthier clutches tended to result in better survival of homozygous ryr1b mutants. Median mutant life spans more accurately adhered to the 7-15 day estimate previously published^30. Therefore, in the secondary screen, hit chemical pools were separated into individual compounds and each of 68 total compounds was examined for its ability to positively influence both ryr1b survival and motor function (referred to in combination as “vitality”). […] These included two anti-inflammatory agents (sulfasalazine and ketoprofen), two monoamine oxidase inhibitors (pargyline hydrochloride and tranylcypromine hydrochloride), and two ion channel modulators (metolazone and nimodipine).

IL-6 [4] = conditions: in vitro; cited from earlier work
ryr1b phenotype = conditions: zebrafish, in vivo; cited from earlier work
[5] = system: myofiber apoptosis and muscle strength; conditions: mouse, in vivo; cited from earlier work
IL-6 [6] = conditions: skeletal muscle; cited from earlier work

SMILES | Vitality Score [3] | further results
C1=Cc2nc1cc1ccc([nH]1)c(-c1ccccc1)c1nc(cc3ccc([nH]3)c2-c2ccccc2)C=C1 [5,15-DPP, 5,15-diphenylporphyrin] |  | genotyped ryr1b larvae in treated pools (evidence of toxicity) ([1]; 5 dpf, 25% mutants expected): less than 25%; dose that improved mobility of ryr1b mutants / optimal activity ([1]; treated at 1 dpf, touch-evoked escape behaviors at 5 dpf, tested 1.0-100.0 μg/mL): 100.0 µg/mL and 100 µg/mL; touch-evoked escape behaviors / mobility of ryr1b mutants [1]: ryr1b mutants were among larvae that exhibited wild-type touch-evoked escape behaviors; satellite cell expansion and muscle generation [2]: promotes satellite cell expansion and rescues defects in muscle generation
N#C/C(=C/c1ccc(O)c(O)c1)C(=O)NCc1ccccc1 [AG490] |  | satellite cell expansion and muscle generation [2]: promotes satellite cell expansion and rescues defects in muscle generation
CCCCOc1cc(C(=O)OCCN(CC)CC)ccc1N [Benoxinate hydrochloride] | 52.5 | 
CC(=O)N(CC(O)CO)c1c(I)c(C(=O)NCC(O)CO)c(I)c(C(=O)NCC(O)CO)c1I (stereo not drawn) [Iohexol] | 53.5 | 
CC(C(=O)O)c1cccc(C(=O)c2ccccc2)c1 (stereo not drawn) [Ketoprofen] | 52.0 | touch-evoked escape behaviors / mobility of ryr1b mutants [1]: confirmed a relationship between ketoprofen and improvements in ryr1b mobility; production of IL-6 (IL-6 [4]): inhibits the production of IL-6 in vitro
Cc1ccccc1N1C(=O)c2cc(S(N)(=O)=O)c(Cl)cc2NC1C (stereo not drawn) [Metolazone] | 55.5 | 
Clc1ccc(COC(Cn2ccnc2)c2ccc(Cl)cc2Cl)c(Cl)c1 (stereo not drawn) [Miconazole] | 54.0 | 
CC(=O)N[C@@H](CS)C(=O)O [N-acetylcysteine] |  | effect on ryr1b phenotype (ryr1b phenotype): shown to ameliorate select aspects of the ryr1b phenotype
COCCOC(=O)C1=C(C)NC(C)=C(C(=O)OC(C)C)C1c1cccc([N+](=O)[O-])c1 (stereo not drawn) [Nimodipine] | 52.0 | 
C#CCN(C)Cc1ccccc1 [Pargyline hydrochloride] | 58.0 | myofiber apoptosis and muscle strength [5]: significantly decreases myofiber apoptosis and increases muscle strength
O=C(O)c1cc(/N=N/c2ccc(S(=O)(=O)Nc3ccccn3)cc2)ccc1O [Sulfasalazine] | 57.0 | IL-6 release (IL-6 [6]): inhibit IL-6 release in skeletal muscle
Clc1ccccc1CN1CCc2sccc2C1 [Ticlopidine hydrochloride] | 54.0 | 
N[C@@H]1C[C@H]1c1ccccc1 [Tranylcypromine hydrochloride] | 52.0 | 
CN(C)C/C=C(/c1ccc(Br)cc1)c1cccnc1 [Zimelidine dihydrochloride monohydrate] | 55.0 | 

— patent publication US10973912B2, “Treatment for myopathy” (Children's Medical Center Corporation, priority 2015, dated 2021)
